In patent US6355799B1, “Substituted benzene compounds, process for their preparation, and herbicidal and defoliant compositions containing them” (ISK Americas Incorporated, priority 1997, dated 2002):

Legend:
Type in all cases: in vivo
[1] = tested on: redroot pigweed (Amaranthus retroflexus, AMARE); test: Pre-emerge test, greenhouse herbicide activity screening; conditions: pre-emerge, 14 days after application, rating scale 0-100
How it was run: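 Rating: 0–100 visual injury, 14 DAA. Application: acetone, 187 l/ha, 15–1000 g ai/ha, flat-fan track sprayer with nozzle 40–45 cm above soil or canopy. Post-emerge runs used 0.25% v/v surfactant on 2–3 leaf plants.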

[2] = tested on: barnyardgrass (Echinochloa crus-galli, ECHCG); test: as above; conditions: pre-emerge, 14 days after application, rating scale 0-100
How it was run: (§1)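 Plants grown in 10 cm pots of sandy loam mix received acetone-dissolved compounds through a moving flat-fan nozzle. Doses ranged from 15 to 1000 g ai/ha. Pre-emerge pots were seeded one day earlier, post-emerge pots 8–21 days earlier. Fourteen days on, each pot was graded 0–100 for damage.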

[3] = tested on: common ragweed (Ambrosia artemisizfolia L., AMBEL); test: as above; conditions: pre-emerge, 14 days after application, rating scale 0-100
How it was run: as §1

[4] = tested on: green foxtail (Setaria viridis, SETVI); test: as above; conditions: pre-emerge, 14 days after application, rating scale 0-100
How it was run: as §1

[5] = tested on: ivyleaf morningglory (Ipomoea hederacea, IPOHE); test: as above; conditions: pre-emerge, 14 days after application, rating scale 0-100
How it was run: as §1

[6] = tested on: johnsongrass (Sorghum halepense, SORHA); test: as above; conditions: pre-emerge, 14 days after application, rating scale 0-100
How it was run: as §1

[7] = tested on: lambsquarters (Chenopodium album, CHEAL); test: as above; conditions: pre-emerge, 14 days after application, rating scale 0-100
How it was run: as §1

[8] = tested on: large crabgrass (Digitaria sanguinalis, DIGSA); test: as above; conditions: pre-emerge, 14 days after application, rating scale 0-100
How it was run: as §1

[9] = tested on: sicklepod (Cassia obtusifolia, CASOB); test: as above; conditions: pre-emerge, 14 days after application, rating scale 0-100
How it was run: as §1

[10] = tested on: velvetleaf (Abutilon theophrasti, ABUTH); test: as above; conditions: pre-emerge, 14 days after application, rating scale 0-100
How it was run: as §1

[11] = tested on: field corn (Zea mays L., var. Dekalb 535, CORN); test: Pre-emerge test, crop safety; conditions: pre-emerge, 14 days after application, rating scale 0-100
How it was run: (§2)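 Applied at 15–1000 g ai/ha from acetone in 187 l/ha spray volume. Post-emergence applications included 0.25% v/v non-ionic surfactant and reached plants sown 8–21 days before. Pre-emergence applications were incorporated by surface watering. Efficacy or crop damage was rated on a 0–100 scale after 14 days.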

[12] = tested on: upland rice (Oryza sp., var. Tebonnet, RICE); test: Pre-emerge test, crop safety; conditions: pre-emerge, 14 days after application, rating scale 0-100
How it was run: as §2

[13] = tested on: barnyardgrass (Echinochloa crus-galli, ECHCG); test: Post-emerge test, greenhouse herbicide activity screening; conditions: post-emerge, 14 days after application, rating scale 0-100
How it was run: (§3)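 Compounds in acetone were track-sprayed at 15-1000 g ai/ha (187 l/ha) on sandy loam pots: pre-emerge one day after seeding, post-emerge at 2-3 leaf stage with 0.25% v/v non-ionic surfactant. Phytotoxicity was rated 14 days later on a 0 (no damage) to 100 (complete death) scale.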

[14] = tested on: common ragweed (Ambrosia artemisizfolia L., AMBEL); test: as above; conditions: post-emerge, 14 days after application, rating scale 0-100
How it was run: as §3

[15] = tested on: green foxtail (Setaria viridis, SETVI); test: as above; conditions: post-emerge, 14 days after application, rating scale 0-100
How it was run: as §3

[16] = tested on: ivyleaf morningglory (Ipomoea hederacea, IPOHE); test: as above; conditions: post-emerge, 14 days after application, rating scale 0-100
How it was run: as §3

[17] = tested on: lambsquarters (Chenopodium album, CHEAL); test: as above; conditions: post-emerge, 14 days after application, rating scale 0-100
How it was run: as §3

[18] = tested on: large crabgrass (Digitaria sanguinalis, DIGSA); test: as above; conditions: post-emerge, 14 days after application, rating scale 0-100
How it was run: as §3

[19] = tested on: redroot pigweed (Amaranthus retroflexus, AMARE); test: as above; conditions: post-emerge, 14 days after application
How it was run: as §3

[20] = tested on: sicklepod (Cassia obtusifolia, CASOB); test: as above; conditions: post-emerge, 14 days after application, rating scale 0-100
How it was run: as §3

[21] = tested on: velvetleaf (Abutilon theophrasti, ABUTH); test: as above; conditions: post-emerge, 14 days after application, rating scale 0-100
How it was run: as §3

[22] = tested on: field corn (Zea mays L., var. Dekalb 535, CORN); test: Post-emerge test, crop safety; conditions: post-emerge, 14 days after application, rating scale 0-100
How it was run: (§4)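 Each test used a mechanized track sprayer delivering 187 l/ha of acetone solution at 15–1000 g ai/ha. Post-emerge foliage at 2–3 leaves was treated with added 0.25% v/v non-ionic surfactant and bottom-watered only. Injury was assessed on day 14, where 100 means total kill.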

[23] = tested on: upland rice (Oryza sp., var. Tebonnet, RICE); test: Post-emerge test, crop safety; conditions: post-emerge, 14 days after application, rating scale 0-100
How it was run: as §4

CCOC(=O)C(Cl)Cc1c(OCC)c(Cl)cc(F)c1-n1c(=O)cc(C(F)(F)F)n(C)c1=O (stereo not shown) [14-63]
phytotoxicity rating AMARE ([1]; 63 g ai/ha): 99
phytotoxicity rating AMARE ([1]; 250 g ai/ha): 100
phytotoxicity rating ECHCG ([2]; 63 g ai/ha): 0
phytotoxicity rating ECHCG ([2]; 250 g ai/ha): 50
phytotoxicity rating AMBEL ([3]; 63 g ai/ha): 0
phytotoxicity rating AMBEL ([3]; 250 g ai/ha): 60
phytotoxicity rating SETVI ([4]; 63 g ai/ha): 30
phytotoxicity rating SETVI ([4]; 250 g ai/ha): 99
phytotoxicity rating IPOHE ([5]; 63 g ai/ha): 0
phytotoxicity rating IPOHE ([5]; 250 g ai/ha): 0
phytotoxicity rating SORHA ([6]; 63 g ai/ha): 0
phytotoxicity rating SORHA ([6]; 250 g ai/ha): 20
phytotoxicity rating CHEAL ([7]; 63 g ai/ha): 80
phytotoxicity rating CHEAL ([7]; 250 g ai/ha): 99
phytotoxicity rating DIGSA ([8]; 63 g ai/ha): 70
phytotoxicity rating DIGSA ([8]; 250 g ai/ha): 100
phytotoxicity rating CASOB ([9]; 63 g ai/ha): 0
phytotoxicity rating CASOB ([9]; 250 g ai/ha): 50
phytotoxicity rating ABUTH ([10]; 63 g ai/ha): 70
phytotoxicity rating ABUTH ([10]; 250 g ai/ha): 100
phytotoxicity rating CORN ([11]; 63 g ai/ha): 0
phytotoxicity rating CORN ([11]; 250 g ai/ha): 0
phytotoxicity rating RICE ([12]; 63 g ai/ha): 0
phytotoxicity rating RICE ([12]; 250 g ai/ha): 0
Post-emerge Herbicidal Activity ECHCG (phytotoxicity rating) ([13]; 63 g ai/ha): 100
Post-emerge Herbicidal Activity ECHCG (phytotoxicity rating) ([13]; 250 g ai/ha): 99
Post-emerge Herbicidal Activity AMBEL (phytotoxicity rating) ([14]; 63 g ai/ha): 20
Post-emerge Herbicidal Activity AMBEL (phytotoxicity rating) ([14]; 250 g ai/ha): 50
Post-emerge Herbicidal Activity SETVI (phytotoxicity rating) ([15]; 63 g ai/ha): 50
Post-emerge Herbicidal Activity SETVI (phytotoxicity rating) ([15]; 250 g ai/ha): 70
Post-emerge Herbicidal Activity IPOHE (phytotoxicity rating) ([16]; 63 g ai/ha): 70
Post-emerge Herbicidal Activity IPOHE (phytotoxicity rating) ([16]; 250 g ai/ha): 70
Post-emerge Herbicidal Activity CHEAL (phytotoxicity rating) ([17]; 63 g ai/ha): 80
Post-emerge Herbicidal Activity CHEAL (phytotoxicity rating) ([17]; 250 g ai/ha): 100
Post-emerge Herbicidal Activity DIGSA (phytotoxicity rating) ([18]; 63 g ai/ha): 40
Post-emerge Herbicidal Activity DIGSA (phytotoxicity rating) ([18]; 250 g ai/ha): 90
Post-emerge Herbicidal Activity AMARE (phytotoxicity rating) ([19]; 63 g ai/ha, rating scale 0-100 (0 no damage, 100 complete death)): 95
Post-emerge Herbicidal Activity AMARE (phytotoxicity rating) ([19]; 250 g ai/ha, rating scale 0-100): 100
Post-emerge Herbicidal Activity CASOB (phytotoxicity rating) ([20]; 63 g ai/ha): 95
Post-emerge Herbicidal Activity CASOB (phytotoxicity rating) ([20]; 250 g ai/ha): 100
Post-emerge Herbicidal Activity ABUTH (phytotoxicity rating) ([21]; 63 g ai/ha): 90
Post-emerge Herbicidal Activity ABUTH (phytotoxicity rating) ([21]; 250 g ai/ha): 100
Post-emerge Herbicidal Activity CORN (crop damage rating) ([22]; 63 g ai/ha): 35
Post-emerge Herbicidal Activity CORN (crop damage rating) ([22]; 250 g ai/ha): 80
Post-emerge Herbicidal Activity RICE (crop damage rating) ([23]; 63 g ai/ha): 5
Post-emerge Herbicidal Activity RICE (crop damage rating) ([23]; 250 g ai/ha): 15
